Test results reported in US8017646B2, “Histamine H3-receptor ligands and their therapeutic application” (Bioprojet, priority 2005, dated 2011).
Where a name gives a salt, the structure may show the parent alone. Read-outs that look alike come from different tables or passages of the source.

How the values were obtained:
CYP3A4 = CYP3A4 (Homo sapiens, UniProt P08684); assay: Cytochrome inhibition, fluorometric assay, CYP3A4; format: biochemical; conditions: human recombinant CYP3A4, substrate BFC; read-out: cytochrome inhibition (IC50, concentrations for 50% inhibition) CYP3A4
CYP3A4, sequence (P08684 whole entry, canonical isoform): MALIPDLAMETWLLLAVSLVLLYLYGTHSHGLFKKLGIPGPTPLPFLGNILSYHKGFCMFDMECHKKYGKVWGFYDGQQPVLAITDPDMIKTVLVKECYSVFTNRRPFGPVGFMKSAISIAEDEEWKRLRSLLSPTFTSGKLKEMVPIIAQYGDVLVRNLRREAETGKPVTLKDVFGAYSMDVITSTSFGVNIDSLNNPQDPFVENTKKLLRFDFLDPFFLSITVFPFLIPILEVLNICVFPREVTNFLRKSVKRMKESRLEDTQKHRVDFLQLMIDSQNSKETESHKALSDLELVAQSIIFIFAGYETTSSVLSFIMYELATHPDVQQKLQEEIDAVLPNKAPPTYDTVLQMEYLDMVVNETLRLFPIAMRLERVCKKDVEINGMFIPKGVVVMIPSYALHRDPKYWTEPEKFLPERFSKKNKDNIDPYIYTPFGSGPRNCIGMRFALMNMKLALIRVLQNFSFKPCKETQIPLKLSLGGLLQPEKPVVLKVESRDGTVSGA
Experimental: (§1) The ability of drug in human to inhibit the catalytic activity of cytochrome P-450 isoforms was assayed using microtiter plate-based, fluorometric assays for the activities of the five human major CYP forms. Inhibition potential was determined in vitro after incubation of fluorescent model substrates over various incubation time with human recombinant cytochrome isoforms in the absence or in presence of increasing concentrations of test molecules (from 1 nM to 100 μM), in comparison with specific CYP isoform inhibitors. Data were expressed as quantitative inhibition parameters [inhibitor concentration that produces 50% inhibition (IC50 value)]. Incubation of drug was carried out at 37° C.±0.5° C. under agitation in the presence of human recombinant cytochrome P-450 isoforms and a NADPH generating system. The incubation conditions for each cytochrome isoform were as follow: [table]

CYP2D6 = CYP2D6 (Homo sapiens, UniProt P10635); assay: Cytochrome inhibition, fluorometric assay, CYP2D6; format: biochemical
CYP2D6, sequence (P10635 whole entry, canonical isoform): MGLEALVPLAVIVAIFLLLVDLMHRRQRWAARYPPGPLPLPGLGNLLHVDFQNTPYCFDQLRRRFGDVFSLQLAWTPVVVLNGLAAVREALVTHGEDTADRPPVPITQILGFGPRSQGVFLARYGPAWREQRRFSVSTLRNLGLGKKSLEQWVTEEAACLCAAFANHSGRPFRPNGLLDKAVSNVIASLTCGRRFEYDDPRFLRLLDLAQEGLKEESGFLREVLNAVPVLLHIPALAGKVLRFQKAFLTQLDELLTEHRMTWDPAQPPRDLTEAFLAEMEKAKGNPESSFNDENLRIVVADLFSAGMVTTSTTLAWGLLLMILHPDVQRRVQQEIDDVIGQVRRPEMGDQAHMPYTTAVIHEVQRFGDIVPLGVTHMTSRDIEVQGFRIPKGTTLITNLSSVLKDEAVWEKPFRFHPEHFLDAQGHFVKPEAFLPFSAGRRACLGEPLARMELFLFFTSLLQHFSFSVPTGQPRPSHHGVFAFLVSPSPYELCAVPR
Experimental: as §1, with “value)].” for “value)]. Incubation of drug was carried out at 37° C.±0.5° C. under agitation in the presence of human recombinant cytochrome P-450 isoforms and a NADPH generating system. The incubation conditions for each cytochrome isoform were as follow: [table]”
Incubation of drug was carried out at 37° C.±0.5° C. under agitation in the presence of human recombinant cytochrome P-450 isoforms and a NADPH generating system. The incubation conditions for each cytochrome isoform were as follow: […]

[1] = target: human histamine H3 receptors (Homo sapiens, UniProt Q9Y5N1); assay: H3 binding ([125I]iodoproxyfan displacement); conditions: for Ki: membranes expressing human histamine H3 receptors, [125I]iodoproxyfan
human histamine H3 receptors, sequence (Q9Y5N1 whole entry): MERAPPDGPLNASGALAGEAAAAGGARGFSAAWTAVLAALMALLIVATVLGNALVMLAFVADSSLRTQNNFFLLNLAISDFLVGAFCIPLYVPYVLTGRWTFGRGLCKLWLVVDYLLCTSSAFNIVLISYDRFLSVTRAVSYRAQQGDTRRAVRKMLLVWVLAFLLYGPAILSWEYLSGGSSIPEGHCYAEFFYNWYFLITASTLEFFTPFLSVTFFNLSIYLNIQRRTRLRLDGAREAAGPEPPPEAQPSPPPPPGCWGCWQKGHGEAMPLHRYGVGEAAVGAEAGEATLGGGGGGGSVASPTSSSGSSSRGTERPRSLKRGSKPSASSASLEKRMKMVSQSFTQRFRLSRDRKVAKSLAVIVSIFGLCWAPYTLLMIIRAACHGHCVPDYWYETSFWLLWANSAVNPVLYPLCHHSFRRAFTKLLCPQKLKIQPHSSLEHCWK
Experimental: Membranes expressing human histamine H3 receptors were incubated 1 hour at room temperature in binding buffer containing 50 mM Na2HPO4/KH2PO4 pH 7.5 in a final volume of 200 μl. […] Amersham Pharmacia Biotech) concentrations ranged between 20 and 40 pM. Non-specific binding was determined in the presence of 1 μM Imetit. The reaction was stopped by rapid filtration through GF/B filters (pre-soaked for 2 hours with 0.3% polyethyleneimine) followed by 3 ice cold binding buffer washes. The filter-bound radioactivity was measured in a liquid scintillation counter with 50 μl of scintillation fluid.

[2] = human recombinant CYP2D6, substrate AMMC, read-out: cytochrome inhibition (IC50, concentrations for 50% inhibition) CYP2D6

Row | Compound | IC50 (CYP3A4) | IC50 (CYP2D6; [2]) | melting point | Ki [1] | Kd ([1]; radioligand at human H3 receptor membranes, read-out: Kd (hH3 binding)) | IC50 (CYP2D6; comparative compound disclosed in WO 00/06254, read-out: cytochrome inhibition (IC50) CYP2D6)
1 | COc1ccc(CCCOCCCN2CCCC2)cc1OC [Example 1, 1-{3-[3-(3,4-dimethoxyphenyl)propoxy]propyl}pyrrolidine, oxalate] | > 10 µM | > 10 µM | – | – | – | –
2 | COc1ccc(/C=C/COCCCN2CCCCC2)cc1OC.O=C(O)C(=O)O [Example 2, trans-1-{3-[3-(3,4-dimethoxyphenyl)allyloxy]propyl}piperidine, oxalate] | > 10 µM | > 10 µM | 111 to 112 °C | – | – | –
3 | COc1ccc(CCCOCCCN2CCCCC2)cc1OC [Example 3, 1-{3-[3-(3,4-dimethoxyphenyl)propoxy]propyl}piperidine, oxalate] | > 10 µM | > 10 µM | – | – | – | –
4 | Cc1ccc(CCCOCCCN2CCCCC2)cc1 [Example 4, 1-{3-[3-(4-methylphenyl)propoxy]propyl}piperidine, oxalate] | > 10 µM | > 10 µM | – | – | – | –
5 | c1ccc2cc(CCCOCCCN3CCCCC3)ccc2c1 [Example 5, 1-{3-[3-(2-naphtyl)propoxy]propyl}piperidine, oxalate] | > 10 µM | > 1 µM | – | – | – | –
6 | COc1cc(CCCOCCCN2CCCCC2)ccc1O [Example 6, 1-{3-[3-(4-hydroxy-3-methoxyphenyl)propoxy]propyl}piperidine, oxalate] | > 10 µM | > 1 µM | – | – | – | –
7 | Fc1ccc(CCCOCCCN2CCCC2)cc1.O=C(O)C(=O)O [Example 7, 1-{3-[3-(4-fluorophenyl)propoxy]propyl}pyrrolidine, oxalate] | > 100 µM | 81 µM | 106 °C | – | – | –
8 | COc1cc(/C=C/COCCCN2CCCC2)ccc1F [Example 8, trans-1-{3-[3-(4-fluoro-3-methoxyphenyl)allyloxy]propyl}pyrrolidine, oxalate] | > 10 µM | > 1 µM | – | – | – | –
9 | COc1cc(CCCOCCCN2CCCC2)ccc1F [Example 9, 1-{3-[3-(4-fluoro-3-methoxyphenyl)propoxy]propyl}pyrrolidine, oxalate] | > 100 µM | > 100 µM | – | 0.0017 µM | – | –
10 | Cc1cc(CCCOCCCN2CCCC2)ccc1F [Example 10, 1-{3-[3-(4-fluoro-3-methylphenyl)propoxy]propyl}pyrrolidine, oxalate] | > 10 µM | > 1 µM | – | – | – | –
11 | COc1cc(F)ccc1CCCOCCCN1CCCC1 [Example 11, 1-{3-[3-(4-fluoro-2-methoxyphenyl)propoxy]propyl}pyrrolidine, oxalate] | 23 µM | 18 µM | – | 0.00038 µM | – | –
12 | C(=C\c1ccc2occc2c1)/COCCCN1CCCC1 [Example 12, trans-1-{3-[3-(benzofuran-5-yl)allyloxy]propyl}pyrrolidine, oxalate] | > 10 µM | > 1 µM | – | – | – | –
13 | C(=C\c1ccc2c(c1)OCCO2)/COCCCN1CCCCC1.O=C(O)C(=O)O [Example 13, 1-{3-[3-(2,3-dihydrobenzo[1,4]dioxin-6-yl)allyl]oxy}propyl)piperidine, oxalate] | > 10 µM | > 10 µM | – | – | – | –
14 | C(=C\c1ccc2c(c1)OCCO2)/COCCCN1CCCCC1.O=C(O)C(=O)O [Example 13] | – | – | 120 °C | – | – | –
15 | C(=C\c1ccc2c(c1)OCO2)/COCCCN1CCCC1 [Example 14, trans-1-{3-[3-(benzodioxol-5-yl)allyloxy]propyl}pyrrolidine, oxalate] | 10.6 µM | 4.4 µM | – | 0.0047 µM | – | –
16 | Ic1ccc(COCCCc2cnc[nH]2)cc1 [[^125]iodoproxyfan, reference compound] | – | – | – | – | 0.078 ± 0.006 nM | –
17 | Clc1ccc(CCCOCCCN2CCCCC2)cc1 [reference compound] | – | – | – | – | – | 0.059 µM
